Data from paper PMC6696179, “Structural Optimization and Structure–Activity Relationship of 4-Thiazolidinone Derivatives as Novel Inhibitors of Human Dihydroorotate Dehydrogenase” (Molecules, 2019).

How the values were obtained:
hDHODH = target: T1, hDHODH (Homo sapiens, UniProt Q02127); test: hDHODH enzyme inhibition assay (DCIP/UQ0, dihydroorotate-initiated); type: biochemical; conditions: for inhibition at 10 µM: compound at 10 µM, 10 nM purified hDHODH; for IC50: three independent tests, determined if inhibition at 10 μM was greater than 50%;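 on all read-outs here: recombinant hDHODH (Met30–Arg396) in HEPES pH 8.0 buffer with KCl and Triton X-100, reaction started by 500 µM dihydroorotate, inhibition from rate with inhibitor relative to uninhibited rate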
T1 construct: The plasmid pET-19b–hDHODH (Met30-Arg396) was transformed; inferred from the pET-19b vector and from purification on a chelating column with imidazole elution) (N); made in house; host or cells: E. coli BL21 (DE3)
T1 sequence (Q02127 29-395 limits assumed): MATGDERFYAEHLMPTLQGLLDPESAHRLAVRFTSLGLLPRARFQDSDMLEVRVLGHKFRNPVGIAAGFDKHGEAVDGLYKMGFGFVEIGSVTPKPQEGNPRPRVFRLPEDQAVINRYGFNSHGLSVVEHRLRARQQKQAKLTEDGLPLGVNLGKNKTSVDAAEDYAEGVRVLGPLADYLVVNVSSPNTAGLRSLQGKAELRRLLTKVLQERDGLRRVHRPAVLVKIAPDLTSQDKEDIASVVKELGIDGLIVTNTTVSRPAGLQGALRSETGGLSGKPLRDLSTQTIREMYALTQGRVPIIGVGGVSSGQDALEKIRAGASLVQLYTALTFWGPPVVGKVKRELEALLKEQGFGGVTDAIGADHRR
Description: The purified hDHODH was diluted into a final concentration of 10 nM with the assay buffer contained 50 mM HEPES pH 8.0, 150 mM KCl, 0.1% Triton X-100. […] The dihydroorotate was added to a final concentration of 500 μM to initiate the reaction. […] Inhibition rate was calculated from (1-Vi/V0) × 100. For the determination of the IC50 values, eight to nine different concentrations were applied. Each inhibitor concentration point was tested in triplicate. IC50 values were calculated using the sigmoidal fitting option of the program Origin 8.0.

Row | SMILES | inhibition at 10 µM (hDHODH) [%] | IC50 (hDHODH) [µM] | melting point [°C] | hDHODH inhibitory activity in words (hDHODH)
1 | COC(=O)/C(C#N)=C1\SCC(=O)N1c1ccc(Oc2cccc(C(F)(F)F)c2)cc1 [Compound 21] | 29.7 | > 10 | 159.7 to 161.3 | 
2 | COC(=O)/C(C#N)=C1\SCC(=O)N1c1ccc(Oc2ccc(C(C)(C)C)cc2)cc1 [Compound 22, Methyl (Z)-2-(3-(4-(4-(tert-butyl)phenoxy)phenyl)-4-oxothiazolidin-2-ylidene)-2-cyanoacetate] | 18.1 | > 10 | 212.9 to 213.9 | 
3 | COC(=O)/C(C#N)=C1\SCC(=O)N1c1ccc(-c2ccccc2OC)cc1F [Compound 13, Methyl (Z)-2-cyano-2-(3-(3-fluoro-2’-methoxy-[1,1’-biphenyl]-4-yl)-4-oxothiazolidin-2-ylidene)acetate] | 54.7 | 6.64 |  | 
4 | COC(=O)/C(C#N)=C1\SCC(=O)N1c1ccc(C(=O)Nc2ccc3ccccc3c2)cc1 [Compound 38, Methyl (Z)-2-cyano-2-(3-(4-(naphthalen-2-ylcarbamoyl)phenyl)-4-oxothiazolidin-2-ylidene)acetate] | 38.2 | > 10 | 285 to 286 | inactive
5 | COC(=O)/C(C#N)=C1\SCC(=O)N1c1ccc(-c2cccc(C(F)(F)F)c2)cc1F [Compound 18, Methyl (Z)-2-cyano-2-(3-(3-fluoro-3’-(trifluoromethyl)-[1,1’-biphenyl]-4-yl)-4-oxothiazolidin-2-ylidene) -acetate] | 53.1 | 9.29 |  | 
6 | COC(=O)/C(C#N)=C1\SCC(=O)N1c1ccc(Oc2ccccc2)cc1 [Compound 19, Methyl (Z)-2-cyano-2-(4-oxo-3-(4-phenoxyphenyl)thiazolidin-2-ylidene)acetate] | 52 | 9.43 |  | 
7 | COC(=O)/C(C#N)=C1\SCC(=O)N1c1ccc(C(=O)NC2CCCCC2)cc1 [Compound 27, Methyl (Z)-2-cyano-2-(3-(4-(cyclohexylcarbamoyl)phenyl)-4-oxothiazolidin-2-ylidene)acetate] | 41.7 | > 10 |  | 
8 | COC(=O)/C(C#N)=C1\SCC(=O)N1c1ccc(-c2ccccc2C)cc1F [Compound 12, Methyl (Z)-2-cyano-2-(3-(3-fluoro-2’-methyl-[1,1’-biphenyl]-4-yl)-4-oxothiazolidin-2-ylidene)acetate] | 57.6 | 6.04 |  | 
9 | COC(=O)/C(C#N)=C1\SCC(=O)N1c1ccc(C(=O)Nc2ccccc2C)cc1 [Compound 29, Methyl (Z)-2-cyano-2-(4-oxo-3-(4-(o-tolylcarbamoyl)phenyl)thiazolidin-2-ylidene)acetate] | 47 | > 10 | 274.1 to 275 | 
10 | COC(=O)/C(C#N)=C1\SCC(=O)N1c1ccc(OCc2ccccc2C(=O)O)cc1 [Compound 25, (Z)-2-((4-(2-(1-Cyano-2-methoxy-2-oxoethylidene)-4-oxothiazolidin-3-yl)phenoxy)methyl)benzoic acid] | 29.9 | > 10 |  | 
11 | COC(=O)/C(C#N)=C1\SCC(=O)N1c1ccc(-c2cccc(OC)c2)cc1F [Compound 14, Methyl (Z)-2-cyano-2-(3-(3-fluoro-3’-methoxy-[1,1’-biphenyl]-4-yl)-4-oxothiazolidin-2-ylidene)acetate] | 63.3 | 5.42 |  | 
12 | COC(=O)/C(C#N)=C1\SCC(=O)N1c1ccc(C(=O)Nc2ccc(Cl)cc2)cc1 [Compound 32, Methyl (Z)-2-(3-(4-((4-chlorophenyl)carbamoyl)phenyl)-4-oxothiazolidin-2-ylidene)-2-cyanoacetate] | 52.7 | 7.5 | 280.1 to 280.9 | 
13 | COC(=O)/C(C#N)=C1\SCC(=O)N1c1ccc(C(=O)Nc2cccc(C(=O)O)c2)cc1 [Compound 41, (Z)-3-(4-(2-(1-Cyano-2-methoxy-2-oxoethylidene)-4-oxothiazolidin-3-yl)benzamido)benzoic acid] | 23.5 | > 10 | 205.7 to 206.6 | 
14 | COC(=O)/C(C#N)=C1\SCC(=O)N1c1ccc(C(C)(C)C)cc1 [Compound 7] | 79.1 | 1.75 |  | 
15 | COC(=O)/C(C#N)=C1\SCC(=O)N1c1ccc(C(=O)Nc2ccc(Br)cc2)cc1 [Compound 33, Methyl (Z)-2-(3-(4-((4-bromophenyl)carbamoyl)phenyl)-4-oxothiazolidin-2-ylidene)-2-cyanoacetate] | 42 | > 10 | 306.2 to 307.1 | 
16 | COC(=O)/C(C#N)=C1\SCC(=O)N1c1ccc(-c2ccccc2)cc1F [Compound 10, Methyl (Z)-2-cyano-2-(3-(3-fluoro-[1,1’-biphenyl]-4-yl)-4-oxothiazolidin-2-ylidene)acetate] | 58.8 | 3.52 |  | 

Row | SMILES | inhibition at 10 µM (hDHODH) [%] | IC50 (hDHODH) [µM] | melting point [°C] | hDHODH inhibitory activity in words (hDHODH)
17 | COC(=O)/C(C#N)=C1\SCC(=O)N1c1ccc(OCc2cccc(C(=O)O)c2)cc1 [Compound 26, (Z)-3-((4-(2-(1-Cyano-2-methoxy-2-oxoethylidene)-4-oxothiazolidin-3-yl)phenoxy)methyl)benzoic acid] | 36.2 | > 10 | 233.2 to 234.1 | 
18 | COC(=O)/C(C#N)=C1\SCC(=O)N1c1ccc(C(=O)Nc2ccccc2C(=O)O)cc1 [Compound 40, (Z)-2-(4-(2-(1-Cyano-2-methoxy-2-oxoethylidene)-4-oxothiazolidin-3-yl)benzamido)benzoic acid] | 34.5 | > 10 | 261.8 to 262.5 | 
19 | COC(=O)/C(C#N)=C1\SCC(=O)N1c1ccc(C(=O)Nc2ccc(C(F)(F)F)cc2)cc1 [Compound 35, Methyl (Z)-2-cyano-2-(4-oxo-3-(4-((4-(trifluoromethyl)phenyl)carbamoyl)phenyl)thiazolidin-2-ylidene) acetate] | 24.5 | > 10 | 264.2 to 265.1 | 
20 | COC(=O)/C(C#N)=C1\SCC(=O)N1c1ccc(C(=O)Nc2ccc3c(C(C)=O)cccc3c2)cc1 [Compound 45, Methyl (Z)-2-(3-(4-((5-acetylnaphthalen-2-yl)carbamoyl)phenyl)-4-oxothiazolidin-2-ylidene)-2-cyanoacetate] | 42.2 | > 10 | 275 to 275.8 | 
21 | COC(=O)/C(C#N)=C1\SCC(=O)N1c1ccc(-c2cccc(C#N)c2)cc1F [Compound 16, Methyl (Z)-2-cyano-2-(3-(3’-cyano-3-fluoro-[1,1’-biphenyl]-4-yl)-4-oxothiazolidin-2-ylidene)acetate] | 50.2 | 8.39 | 191.2 to 191.3 | 
22 | COC(=O)/C(C#N)=C1\SCC(=O)N1c1ccc2ccccc2c1 [Compound 8] | 80.3 | 1.12 |  | 
23 | COC(=O)/C(C#N)=C1\SCC(=O)N1c1ccc(-c2cccc([N+](=O)[O-])c2)cc1F [Compound 17, Methyl (Z)-2-cyano-2-(3-(3-fluoro-3’-nitro-[1,1’-biphenyl]-4-yl)-4-oxothiazolidin-2-ylidene) acetate] | 50.7 | 4.35 | 179.2 to 179.9 | 
24 | COC(=O)/C(C#N)=C1\SCC(=O)N1c1ccc(Oc2ccccc2OC)cc1 [Compound 20, Methyl (Z)-2-cyano-2-(3-(4-(2-methoxyphenoxy)phenyl)-4-oxothiazolidin-2-ylidene)acetate] | 44.7 | > 10 | 181.2 to 182.1 | 
25 | COC(=O)/C(C#N)=C1\SCC(=O)N1c1ccc(-c2ccc(OC)cc2)cc1F [Compound 15, Methyl (Z)-2-cyano-2-(3-(3-fluoro-4’-methoxy-[1,1’-biphenyl]-4-yl)-4-oxothiazolidin-2-ylidene)acetate] | 55.4 | 6.86 | 177.1 to 177.3 | 
26 | COC(=O)/C(C#N)=C1\SCC(=O)N1c1ccc(C(=O)Nc2ccc(I)cc2)cc1 [Compound 34, Methyl (Z)-2-cyano-2-(3-(4-((4-iodophenyl)carbamoyl)phenyl)-4-oxothiazolidin-2-ylidene)acetate] | 38.1 | > 10 | 315.8 to 316.6 | 
27 | COC(=O)/C(C#N)=C1\SCC(=O)N1c1ccc(C(=O)Nc2ccc(C(C)(C)C)c(C(=O)O)c2)cc1 [Compound 44, (Z)-2-(tert-butyl)-5-(4-(2-(1-cyano-2-methoxy-2-oxoethylidene)-4-oxothiazolidin-3-yl)benzamido)benzoic acid] | 30.3 | > 10 | 328.1 to 328.9 | 
28 | COC(=O)/C(C#N)=C1\SCC(=O)N1c1ccc(C(=O)Nc2ccc(C(C)(C)C)cc2)cc1 [Compound 37, Methyl (Z)-2-(3-(4-((4-(tert-butyl)phenyl)carbamoyl)phenyl)-4-oxothiazolidin-2-ylidene)-2-cyanoacetate] | 75.6 | 1.45 | 256.1 to 257 | 
29 | COC(=O)/C(C#N)=C1\SCC(=O)N1c1ccc(OCc2ccccc2)cc1 [Compound 24, Methyl (Z)-2-(3-(4-(benzyloxy)phenyl)-4-oxothiazolidin-2-ylidene)-2-cyanoacetate] | 55.4 | 4.32 |  | 
30 | COC(=O)/C(C#N)=C1\SCC(=O)N1c1ccc(-c2ccccc2)cc1 [Compound 9, Methyl (Z)-2-(3-([1,1’-biphenyl]-4-yl)-4-oxothiazolidin-2-ylidene)-2-cyanoacetate] | 73.8 | 1.32 |  | 
31 | COC(=O)/C(C#N)=C1\SCC(=O)N1c1c(F)cc(-c2ccccc2)cc1F [Compound 11, Methyl (Z)-2-cyano-2-(3-(3,5-difluoro-[1,1’-biphenyl]-4-yl)-4-oxothiazolidin-2-ylidene)acetate] | 33.9 | > 10 |  | 
